Results: US9073895B2 (Boehringer Ingelheim International GmbH, priority 2010, dated 2015)

How the values were obtained:
human glomerulonephritis = details: clinical trial; cited from earlier work
[1] = tested on: apoE/LDL-R double knockout mice; details: oral dosing, high-fat diet from 2 months of age to 6 months; cited from earlier work
ApoExCD4dnT RII mice = details: infusion, treated for four weeks; cited from earlier work
[2] = molecular target: T1, recombinant human FLAP protein (Homo sapiens, UniProt P20292); assay: FLAP binding assay (SPA, displacement of [125I]L-691,831); details: membranes of sf9 cells expressing human FLAP, [125I]L-691,831 probe; read-out: hFLAP binding IC50
T1 construct: made in house; host or cells: Sf9 insect cells (membrane fraction, 100,000 x g pellet)
T1 sequence (P20292 1-161): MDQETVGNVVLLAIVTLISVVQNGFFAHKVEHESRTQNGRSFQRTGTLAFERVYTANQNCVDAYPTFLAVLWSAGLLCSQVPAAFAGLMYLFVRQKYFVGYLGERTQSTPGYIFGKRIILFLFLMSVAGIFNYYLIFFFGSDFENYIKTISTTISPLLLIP
In short: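 Membranes from sf9 cells expressing human FLAP (5 μg/well) were bound to WGA SPA beads (200 μg/well). Nonspecific binding was defined with 10 μM unlabelled L-691,831.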

[3] = tested on: synthesis of LTB4 in human whole blood; assay: Human whole blood LTB4 production inhibition assay; format: cell-based; details: heparinized human whole blood, calcimycin 20 μM, plasma LTB4; read-out: HuWB IC50
In short: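 LTB4 levels in plasma were measured by antibody-based HTRF after heparinized human whole blood, pretreated with compound (15 min, 37° C), was challenged with 20 μM calcimycin for 30 min at 37° C.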

[4] = tested on: biomarkers for myocardial infarction risk; details: clinical trial; cited from earlier work

| SMILES | IC50 [2] | IC50 [3] | further results |
| --- | --- | --- | --- |
| CC(C)(C)Sc1c(CC(C)(C)C(=O)O)n(Cc2ccc(Cl)cc2)c2ccc(OCc3ccc4ccccc4n3)cc12 [MK-591] | – | – | effect on proteinuria (human glomerulonephritis): reduce proteinuria |
| CC(C)c1ccc2c(c1)c(SC(C)(C)C)c(CC(C)(C)C(=O)O)n2Cc1ccc(Cl)cc1 [MK-886] | – | – | decrease in plaque coverage in the aorta [1]: 56%; decrease in plaque coverage in the aortic root [1]: 43%; decrease in plaque area in the aortic root (ApoExCD4dnT RII mice): ~40% |
| COc1ccc(Oc2ccccc2)cc1NC(=O)C1(c2ccc(-c3cnc(N)nc3)cc2)CCOCC1 [Example 76, 4-[4-(2-aminopyrimidin-5-yl)phenyl]-N-(2-methoxy-5-phenoxyphenyl)tetrahydro-2H-pyran-4-carboxamide] | 52.5 nM | > 3000 nM | – |
| CC(C)(C(=O)Nc1ccccn1)c1ccc(-c2cnc(N)nc2)cc1 [Example 158, 2-[4-(2-aminopyrimidin-5-yl)phenyl]-2-methyl-N-(pyridin-2-yl)propanamide] | 36 nM | 5270 nM | – |
| O=C(O)[C@@H](c1ccc(OCc2ccc3ccccc3n2)cc1)C1CCCC1 [DG-031] | – | – | effect on biomarkers for myocardial infarction risk [4]: dose-dependent suppression of several biomarkers |
| COc1cc(NC(=O)C2(c3ccc(-c4cnc5[nH]ccc5c4)cc3)CCC2)ccn1 [Example 190, N-(2-methoxypyridin-4-yl)-1-[4-(1H-pyrrolo[2,3-b]pyridin-5-yl)phenyl]cyclobutanecarboxamide] | 2.25 nM | 149 nM | – |
| O=C(Nc1ccc(Oc2ccccc2)cn1)C1(c2ccc(-c3cnc4[nH]ccc4c3)cc2)CCOCC1 [Example 174, N-(5-phenoxypyridin-2-yl)-4-[4-(1H-pyrrolo[2,3-b]pyridin-5-yl)phenyl]tetrahydro-2H-pyran-4-carboxamide] | 18.1 nM | 686 nM | – |
| Cc1csc(NC(=O)C2(c3ccc(-c4cnc(N)nc4)cc3)CCC2)n1 [Example 205, 1-[4-(2-aminopyrimidin-5-yl)phenyl]-N-(4-methyl-1,3-thiazol-2-yl)cyclobutanecarboxamide] | 8.4 nM | 922 nM | – |
| COc1cc(NC(=O)C2(c3ccc(-c4cnc(N)nc4)cc3)CCC2)ccn1 [Example 187, 1-[4-(2-aminopyrimidin-5-yl)phenyl]-N-(2-methoxypyridin-4-yl)cyclobutanecarboxamide] | 5.1 nM | 517 nM | – |
| COc1cncc(-c2ccc(NC(=O)C3(c4ccc(-c5cnc6c(c5)CCN6)cc4)CCOCC3)nc2)c1 [Example 175, 4-[4-(2,3-dihydro-1H-pyrolo[2,3-b]pyridin-5-yl)phenyl]-N-(5'-methoy-3,3'-bipyridin-6-yl)tetrahydro-2H-pyran-4-carboxamide] | 22 nM | 1280 nM | – |
| CN1CCc2nc(NC(=O)C3(c4ccc(-c5cnc(N)nc5)cc4)CCC3)sc2C1 [Example 234, 1-[4-(2-aminopyrimidin-5-yl)phenyl]-N-(5-methyl-4,5,6,7-tetrahydro[1,3]thiazolo[5,4-c]pyridin-2-yl)cyclobutanecarboxamide] | 32.5 nM | 858 nM | – |
| Nc1ncc(-c2ccc(C3(C(=O)Nc4ccc(-c5ccncc5)cc4)CCOCC3)cc2)cn1 [Example 34, 4-[4-(2-aminopyrimidin-5-yl)phenyl]-N-[4-(pyridin-4-yl)phenyl]tetrahydro-2H-pyran-4-carboxamide] | 11.7 nM | 160 nM | – |
| CC(C)C(C)(C(=O)Nc1ccncc1)c1ccc(-c2ccc(N(C)C)nc2)cc1 (stereo not shown) [Example 227, 2-{4-[6-(dimethylamino)pyridin-3-yl]phenyl}-2,3-dimethyl-N-(pyridin-4-yl)butanamide] | 40.5 nM | > 3000 nM | – |
| N#Cc1ccc(NC(=O)C2(c3ccc(-c4cnc(N)nc4)cc3)CCC2)cn1 [Example 241, 1-[4-(2-aminopyrimidin-5-yl)phenyl]-N-(6-cyanopyridin-3-yl)cyclobutanecarboxamide] | 5.6 nM | 406 nM | – |
| N#Cc1ccc(NC(=O)C2(c3ccc(-c4cnc(N)nc4)cc3)CCC2)cc1Cl [Example 195, 1-[4-(2-aminopyrimidin-5-yl)phenyl]-N-(3-chloro-4-cyanophenyl)cyclobutane-carboxamide] | 2.7 nM | 174 nM | – |
| Nc1ncc(-c2ccc(C3(C(=O)Nc4cccc(Oc5ccccc5)c4)CCOCC3)cc2)cn1 [Example 22, 4-[4-(2-aminopyrimidin-5-yl)phenyl]-N-(3-phenoxyphenyl)tetrahydro-2H-pyran-4-carboxamide] | 60.5 nM | > 3000 nM | – |
| CC(C)(C)c1cccc(NC(=O)C2(c3ccc(-c4cnc(N)nc4)cc3)CCOCC2)c1 [Example 74, 4-[4-(2-aminopyrimidin-5-yl)phenyl]-N-(3-tert-butylphenyl)tetrahydro-2H-pyran-4-carboxamide] | 97 nM | > 3000 nM | – |
| CC(C)C(C)(C(=O)Nc1ccc(Cl)cn1)c1ccc(-c2cnc(N)nc2)cc1 (stereo not shown) [Example 136, 2-[4-(2-aminopyrimidin-5-yl)phenyl]-N-(5-chloropyridin-2-yl)-2,3-dimethylbutanamide] | 10.3 nM | 4690 nM | – |
| Nc1ncc(-c2ccc(C3(C(=O)Nc4cccc(OCc5ccccc5)c4)CCOCC3)cc2)cn1 [Example 61, 4-[4-(2-aminopyrimidin-5-yl)phenyl]-N-[3-(benzyloxy)phenyl]tetrahydro-2H-pyran-4-carboxamide] | 94 nM | > 3000 nM | – |
| Nc1ncc(-c2ccc(C3(C(=O)Nc4ccc(-c5csnn5)cc4)CCOCC3)cc2)cn1 [Example 25, 4-[4-(2-aminopyrimidin-5-yl)phenyl]-N-[4-(1,2,3-thiadiazol-4-yl)phenyl]tetrahydro-2H-pyran-4-carboxamide] | 8.65 nM | 501 nM | – |
| Cn1cc(NC(=O)C2(c3ccc(-c4cnc(N)nc4)cc3)CCC2)cn1 [Example 110, 1-[4-(2-aminopyrimidin-5-yl)phenyl]-N-(1-methyl-1H-pyrazol-4-yl)cyclobutanecarboxamide] | 120 nM | 1100 nM | – |
| Cc1nccn1-c1ccc(NC(=O)C2(c3ccc(-c4cnc(N)nc4)cc3)CCC2)cc1 [Example 229, 1-[4-(2-aminopyrimidin-5-yl)phenyl]-N-[4-(2-methyl-1H-imidazol-1-yl)phenyl]cyclobutanecarboxamide] | 6.65 nM | 153 nM | – |
| COc1ccc(-c2ccc(NC(=O)C3(c4ccc(-c5cnc(N)c(CO)c5)cc4)CCOCC3)nc2)cn1 [Example 170] | 9.8 nM | 894 nM | – |
| Cc1nc(-c2cccc(NC(=O)C3(c4ccc(-c5cnc(N)nc5)cc4)CCOCC3)c2)cs1 [Example 70, 4-[4-(2-aminopyrimidin-5-yl)phenyl]-N-[3-(2-methyl-1,3-thiazol-4-yl)phenyl]tetrahydro-2H-pyran-4-carboxamide] | 42 nM | > 3000 nM | – |
| CC(C)n1ncc2cc(NC(=O)C3(c4ccc(-c5cnc(N)nc5)cc4)CCOCC3)cnc21 [Example 68, 4-[4-(2-aminopyrimidin-5-yl)phenyl]-N-[1-(propan-2-yl)-1H-pyrazolo[3,4-b]pyridin-5-yl)tetrahydro-2H-pyran-4-carboxamide] | 68.5 nM | 1210 nM | – |
| Cc1cnccc1NC(=O)C1(c2ccc(-c3cnc(N)nc3)cc2)CCC1 [Example 196, 1-[4-(2-aminopyrimidin-5-yl)phenyl]-N-(3-methylpyridin-4-yl)cyclobutanecarboxamide] | 50.7 nM | 2910 nM | – |
| N#Cc1ccnc(NC(=O)C2(c3ccc(-c4cnc(N)nc4)cc3)CCOCC2)c1 [Example 79, 4-[4-(2-aminopyrimidin-5-yl)phenyl]-N-(4-cyanopyridin-2-yl)tetrahydro-2H-pyran-4-carboxamide] | 53.5 nM | > 3000 nM | – |
| COc1ccc2nc(NC(=O)C3(c4ccc(-c5cnc(N)nc5)cc4)CCOCC3)sc2c1 [Example 7, 4-[4-(2-aminopyrimidin-5-yl)phenyl]-N-(6-methoxy-1,3-benzothiazol-2-yl)tetrahydro-2H-pyran-4-carboxamide] | 10.7 nM | 2660 nM | – |
